Assay [1] relates to K. pneumoniae. In words: CLSI reference method of microdilution. Format: cell-based. As to conditions: for MIC: Klebsiella pneumoniae; for Interpretation by Microdilution: EUCAST breakpoints. On the technique in general: Dilution methods test growth across graded concentrations, often in twofold steps.
Assay [2] deals with K. pneumoniae. In words: Antibiotic susceptibility testing by the method of the present invention (AuNP-GOx-Ab nanoprobes, absorbance at 545 nm). As to conditions: for MIC: Klebsiella pneumoniae, MIC = dilution showing the criterion % reduction compared to no antibiotics (34% levofloxacin, 23% amikacin), read-out: MIC obtained with the diagnostic method assay; for Interpretation of results of the present method: Patient two urine sample infected with K. pneumoniae, antibiotic at EUCAST breakpoint concentration of Table 1. Format: cell-based. As for the experimental part:
(§1) 250 μL of urine sample was mixed with 250 μL of 2× Mueller-Hinton broth in autoclaved Eppendorf tubes. Respective concentrations of antibiotics as recited in Table 1 were added in each tubes along with one tube without antibiotic which served as a control for monitoring the growth of bacteria. 7-10 μL of the nanoprobes (AuNP-GOx-Ab) prepared in the Example 2 above was added to the mixture and allowed to incubate at 37° C. for 90 minutes to allow growth of bacteria. The solution was then passed through a membrane filter with a pore size of about 450 nm diameter to separate the bacteria bound to the nanoprobes from the unbound ones. The bacteria bound nanoprobes (nanoprobe-bacteria complex) captured on the membrane surface were then recovered by injecting 250 μL of sodium acetate buffer (10 mM, pH 5.1) from the opposite direction.
250 μL of the recovered bacteria-nanoprobe complexes were then incubated at 37° C. for 10 minutes with 50 μL glucose solution (final concentration 100 mM) for production of hydrogen peroxide. After 10 minutes, 150 μL of seed solution containing about 16 nM gold nanoparticles having about 5 nm size and 150 μL of 1.25 mM HAuCl4 solution was added to induce growth of the seed particles and left for 20 minutes to allow growth of the seed particle. Finally, the growth of seed nanoparticles and the intensity of colour formed were determined by recording an absorption spectrum for each sample. FIG. 8(a) provides graphic representation of UV-Visible spectra for antibiotic sensitivity test of patient urine samples with different antibiotics, according to an embodiment of the present invention.
The antibacterial susceptibility test of patient two urine sample containing K. pneumoniae towards the antibiotics ampicillin, gentamicin, levofloxacin and imipenem was performed as mentioned above.
(§2) MIC determination protocol was tested on other antibiotics-bacteria combinations as well and percent reduction criterion was determined for each pair from repeated tests.

The subject of assay [3] is K. pneumoniae. The assay can be described thus: VITEK automated susceptibility test. Format: cell-based. As to conditions: for MIC: Klebsiella pneumoniae, patient two urine sample infected with K. pneumoniae, read-out: MIC reported by VITEK. An excerpt: (§3) The AST market has several products based on the method they employ for testing that include automated systems, discs, MIC strips and media. Most extensively used method to determine antibiotic susceptibility involve culture tests based on the phenotypic growth of the bacteria, which require three days to arrive at the conclusion (Puttaswamy S. et al., 2018). Although culture-based growth methods are the most widely used systems for AST, a few sophisticated high-end labs and hospitals employ automated test machines such as Vitek 2.0 from Biomeriux Technologies, Phoenix from BD etc. These instruments work on the measurement of light attenuation by optical scanner for growth/no growth of bacteria in micro-wells with different antibiotics.

Assay [4] deals with E. coli. In words: Antibiotic susceptibility testing by the method of the present invention (AuNP-GOx-Ab nanoprobes, absorbance at 545 nm). Format: cell-based. As to conditions: for Interpretation of results of the present method: Patient two urine sample infected with E. coli (10^4 CFU/mL), antibiotic at EUCAST breakpoint concentration of Table 1. How it is done:
as §1
250 μL of the recovered bacteria-nanoprobe complexes were then incubated at 37° C. for 10 minutes with 50 μL glucose solution (final concentration 100 mM) for production of hydrogen peroxide. After 10 minutes, 150 μL of seed solution containing about 16 nM gold nanoparticles having about 5 nm size and 150 μL of 1.25 mM HAuCl4 solution was added to induce growth of the seed particles and left for 20 minutes to allow growth of the seed particle. Finally, the growth of seed nanoparticles and the intensity of colour formed were determined by recording an absorption spectrum for each sample.
as §2

Assay [5] concerns E. coli. In words: CLSI reference method of microdilution. Format: cell-based. As to conditions: for MIC: Escherichia coli.
The subject of assay [6] is P. aeruginosa. In words: CLSI reference method of microdilution. Format: cell-based. As to conditions: for MIC: Pseudomonas aeruginosa, patient two sample infected with P. aeruginosa, read-out: MIC reported by Microdilution.
In assay [7] the test system is E. coli. In words: VITEK automated susceptibility test. Format: cell-based. As to conditions: for MIC: Escherichia coli, read-out: MIC reported by VITEK.
Source text: as §3

Assay [8] has as its system P. aeruginosa. The assay can be described thus: VITEK automated susceptibility test. Format: cell-based. As to conditions: for MIC: Pseudomonas aeruginosa, patient two sample infected with P. aeruginosa, read-out: MIC reported by VITEK.
Source text: as §3

Assay [9] has as its system E. faecalis. In words: CLSI reference method of microdilution. As to conditions: for MIC: Enterococcus faecalis, read-out: MIC reported by Microdilution.
Assay [10] deals with E. faecalis. In words: Antibiotic susceptibility testing by the method of the present invention (AuNP-GOx-Ab nanoprobes, absorbance at 545 nm). As to conditions: Patient two sample infected with E. faecalis, antibiotic at EUCAST breakpoint concentration of Table 1. Format: cell-based. As for the experimental part: as §1
(§4) 250 μL of the recovered bacteria-nanoprobe complexes were then incubated at 37° C. for 10 minutes with 50 μL glucose solution (final concentration 100 mM) for production of hydrogen peroxide. […] Finally, the growth of seed nanoparticles and the intensity of colour formed were determined by recording an absorption spectrum for each sample. […]

The subject of assay [11] is multi-drug resistant P. aeruginosa. The description is as above. Format: cell-based. As to conditions: Patient two sample infected with multi-drug resistant P. aeruginosa, antibiotic at EUCAST breakpoint concentration of Table 1. As for the experimental part:
as §1, §4

For assay [12] the following is noted: glucose 100 mM, 37° C., 10 minutes. How it is done: Varying concentrations of GOx, namely, 6 mU, 10 mU and 30 mU and glucose (100 mM) were incubated at 37° C. for 10 minutes and the hydrogen peroxide produced was determined using a H2O2 assay kit (MAK165-SIGMA-ALDRICH).
[13] abbreviates: Clinical isolate K. pneumoniae, read-out: MIC obtained with CLSI reference method of microdilution.
Where [14] appears, read: Patient two urine sample infected with K. pneumoniae.
[15] abbreviates: patient two urine sample infected with K. pneumoniae, read-out: MIC reported by Microdilution.
[16] abbreviates: patient two urine sample infected with E. coli.
Where [17] appears, read: Patient one urine sample infected with E. coli.
The mark [18] stands for this setting: Patient two sample infected with P. aeruginosa.

≈ marks a conversion by molar mass, not a printed value. Like-named read-outs stand apart in the source and are kept apart here.

Broadly, the MIC is the lowest concentration found to suppress growth. For `NCC[C@H](O)C(=O)N[C@@H]1C[C@H](N)[C@@H](O[C@H]2O[C@H](CN)[C@@H](O)[C@H](O)[C@H]2O)[C@H](O)[C@H]1O[C@H]1O[C@H](CO)[C@@H](O)[C@H](N)[C@H]1O` [Amikacin], in the assay on K. pneumoniae [1] (Clinical isolate K. pneumoniae), the “Interpretation by CLSI reference method of microdilution” value is “Resistant”. For the same molecule, in the assay on K. pneumoniae [1] (setting [13]), the minimum inhibitory concentration (MIC) was found to be 128 µg/mL (≈ 219 µM). Further, in the assay with K. pneumoniae [2] (Clinical isolate K. pneumoniae), the “Interpretation by diagnostic method” value is recorded as “Resistant” and the MIC came out at 128 µg/mL.
Turning to `CC1(C)S[C@@H]2[C@H](NC(=O)[C@H](N)c3ccccc3)C(=O)N2[C@H]1C(=O)O` [Ampicillin], the MIC was above 16 µg/mL with K. pneumoniae [3] and 256 µg/mL (≈ 733 µM) with K. pneumoniae [1] (setting [15]). The “Interpretation by VITEK” value in the assay with K. pneumoniae [3] (setting [14]) is “Resistant”. Moreover, the “Interpretation by Microdilution” value with K. pneumoniae [1] (setting [14]) is on record as “Resistant”; in the assay with E. coli [5] (Patient two urine sample infected with E. coli, EUCAST breakpoints), “Sensitive”. Moreover, the “Interpretation of results of the present method” value in the assay on E. coli [4] is listed as “Sensitive”; with E. coli [4] (listed as ampicillin), “sensitive”; with K. pneumoniae [2], “Resistant”; in the assay on K. pneumoniae [2] (listed as ampicillin) it was “resistant”.
Regarding `C[C@@H](O)[C@H]1C(=O)N2C(C(=O)O)=C(SCCN=CN)C[C@H]12` [Imipenem], the MIC with P. aeruginosa [6] is at least 32 µg/mL; in the assay with E. coli [7] (patient one urine sample infected with E. coli), at most 0.25 µg/mL; in the assay with K. pneumoniae [3], at most 0.25 µg/mL; in the assay on P. aeruginosa [8] it was at least 16 µg/mL; in the assay with E. faecalis [9], 0.5 µg/mL (≈ 1.67 µM); in the assay on K. pneumoniae [1] (setting [15]), 0.125 µg/mL (≈ 0.418 µM). Besides, the MIC came to 0.125 µg/mL in the assay with E. coli [4] (Escherichia coli, Clinical isolate E. coli, MIC = dilution showing the criterion % reduction compared to no antibiotics (55% for imipenem), read-out: MIC obtained with the diagnostic method assay); 0.25 µg/mL (≈ 0.835 µM) in the assay with E. coli [5] (Clinical isolate E. coli, read-out: MIC obtained with CLSI reference method of microdilution); 0.25 µg/mL (≈ 0.835 µM) in the assay on E. coli [5] (patient one urine sample infected with E. coli, read-out: MIC reported by Microdilution).
Regarding `C[C@H]1COc2c(N3CCN(C)CC3)c(F)cc3c(=O)c(C(=O)O)cn1c23` [Levofloxacin], the MIC is at least 32 µg/mL in the assay with P. aeruginosa [6]; at least 8 µg/mL in the assay on E. coli [7] (setting [16]); at least 8 µg/mL with P. aeruginosa [8]; 16 µg/mL (≈ 44.3 µM) with K. pneumoniae [1] (setting [13]); 64 µg/mL (≈ 177 µM) in the assay on E. coli [5] (patient two urine sample infected with E. coli, read-out: MIC reported by Microdilution); 16 µg/mL with K. pneumoniae [2] (Clinical isolate K. pneumoniae). The “MIC reported by VITEK” value in the assay with E. coli [7] (setting [17]) is reported as “>=8 μg/mL”. Also, in the assay on E. coli [4] (E. coli as printed in text, present method, 34% reduction criterion), the “MIC (concentration at which signal intensity shows 34% reduction against the control)” value worked out at 16 µg/mL. For the same molecule, the “MIC reported by Microdilution” value against E. coli [5] (setting [17]) was 64 µg/mL (≈ 177 µM).
For the molecule `O=C1CN(/N=C/c2ccc([N+](=O)[O-])o2)C(=O)N1` [Nitrofurantoin], the MIC in the assay on E. coli [7] (setting [16]) is at most 32 µg/mL.
With `CN[C@H](CC(C)C)C(=O)N[C@H]1C(=O)N[C@@H](CC(N)=O)C(=O)N[C@H]2C(=O)N[C@H]3C(=O)N[C@H](C(=O)N[C@H](C(=O)O)c4cc(O)cc(O)c4-c4cc3ccc4O)[C@H](O)c3ccc(c(Cl)c3)Oc3cc2cc(c3O[C@@H]2O[C@H](CO)[C@@H](O)[C@H](O)[C@H]2O[C@H]2C[C@](C)(N)[C@H](O)[C@H](C)O2)Oc2ccc(cc2Cl)[C@H]1O` [Vancomycin], the “Interpretation of results of the present method” value with E. faecalis [10] was “Sensitive”; with E. faecalis [10] (listed as vancomycin), “sensitive”. Also, the MIC in the assay with E. faecalis [9] was 1 µg/mL (≈ 0.69 µM). The “Interpretation by Microdilution” value in the assay with E. faecalis [9] (Patient two sample infected with E. faecalis, EUCAST breakpoints) is “Sensitive”.
Take Gentamicin: the “MIC reported by Microdilution” value is “>=32 μg/mL” against P. aeruginosa [6] (setting [18]) and 0.5 µg/mL in the assay on K. pneumoniae [1] (setting [14]). The “Interpretation by Microdilution” value was “Resistant” in the assay with P. aeruginosa [6] (Patient two sample infected with P. aeruginosa, EUCAST breakpoints) and “Sensitive” in the assay with K. pneumoniae [1] (setting [14]). In addition, the “Interpretation of results of the present method” value was “Resistant” in assay [11], “resistant” in [11] (listed as gentamicin), “Sensitive” with K. pneumoniae [2] and “sensitive” in the assay on K. pneumoniae [2] (listed as gentamicin). The “Interpretation by VITEK” value in the assay with K. pneumoniae [3] (setting [14]) is “Sensitive”; in the assay on P. aeruginosa [8] (setting [18]), “Resistant”. The “MIC reported by VITEK” value with K. pneumoniae [3] (setting [14]) was “<=1 μg/mL”; in the assay with P. aeruginosa [8] (setting [18]), “>=16 μg/mL”.
Regarding glucose oxidase [GOx], the H2O2 generated was 60.76 ± 7.6 µM in assay [12] (6 mU GOx), 113.46 ± 48.1 µM in [12] (10 mU GOx) and 166.25 ± 5.3 µM in [12] (30 mU GOx).

For the origin of these results see US20210278402A1, “METHOD FOR TESTING OF ANTIBIOTIC SUSCEPTIBILITY IN MICROORGANISMS” (MODULE INNOVATIONS PRIVATE LIMITED, priority 2018, published 2021).
